Results: patent US10604529B2, “Fused imidazole compound having indoleamine 2,3-dioxygenase inhibitory activity” (SHENZHEN CHIPSCREEN BIOSCIENCES CO., LTD., priority 2016, dated 2020)
pIC50: −log10 of the molar value.

Tests used:
[1] = target: T1, Recombinant human IDO enzyme (IDO1 enzyme) (Homo sapiens, UniProt P14902); test: In vitro IDO enzymatic activity assay (kynurenine colour reaction, 492 nm); type: biochemical; settings: for inhibition at 0.2 µM: tested compound concentration 200 nM, recombinant human IDO1, read-out: IDO Enzymatic Inhibition Rate (%) (200 nM); for pIC50: recombinant human IDO enzyme
T1 construct: purchased BPS Bioscience, USA
T1 sequence (P14902 whole entry): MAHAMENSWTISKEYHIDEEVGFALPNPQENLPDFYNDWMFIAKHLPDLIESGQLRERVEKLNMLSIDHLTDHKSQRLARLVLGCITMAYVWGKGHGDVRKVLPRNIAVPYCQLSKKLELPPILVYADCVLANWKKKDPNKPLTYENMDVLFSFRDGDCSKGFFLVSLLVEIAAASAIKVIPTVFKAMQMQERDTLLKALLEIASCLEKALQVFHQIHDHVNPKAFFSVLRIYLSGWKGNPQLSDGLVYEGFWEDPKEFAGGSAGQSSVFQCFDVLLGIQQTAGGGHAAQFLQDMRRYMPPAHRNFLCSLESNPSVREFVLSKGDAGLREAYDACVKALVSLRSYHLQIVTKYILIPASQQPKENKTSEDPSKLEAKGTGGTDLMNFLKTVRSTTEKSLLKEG
Experimental: The basic principle of the in vitro IDO enzymatic activity detection is to use the IDO enzyme to metabolize the substrate L-tryptophan to produce the product kynurenine in an in vitro enzyme-catalyzed reaction system. The kynurenine is yellow in color reaction with p-dimethylaminobenzaldehyde in glacial acetic acid, and the absorbance value was measured at 492 nm on a microplate reader. The concentration of the product kynurenine in the sample is calculated by comparison to a standard curve of kynurenine with a known concentration.
Recombinant human IDO enzyme (IDO1 enzyme) was purchased from BPS Bioscience, USA.
(3) Control reactions were set up at the same time the detection reaction was carried out. including 0 inhibition positive control with no tested compound added and 0 enzyme negative control with no enzyme added. All tests were run in duplicate.
(4) After the enzymatic reaction was completed, 40 μl of a pre-formulated 30% (w/v) trichloroacetic acid solution was added, and reacted at 65° C. for 20 minutes, followed by centrifugation at 12,000 rpm for 15 minutes.
(5) 100 μl of the supernatant after centrifugation was pipetted and added to a 96-well plate. An equal volume of 2% p-dimethylaminobenzaldehyde in glacial acetic acid was added, well mixed, and allowed to stand at room temperature for 10 minutes.
(6) A microplate reader (ELX800NB) was used to detect the color signal of each well with a detection wavelength of 492 nm.
In addition, the enzymatic inhibition rates were calculated for the tested compounds of different concentration gradients, and then the enzymatic half maximal inhibitory concentration (IC50) was calculated using the IC50 calculator.
According to the above-mentioned method of experiment, the compound of the present disclosure was subjected to an in vitro IDO enzymatic IC50 assay using NLG919 as a positive control compound.

[2] = target: T2, IFN-γ-induced IDO enzyme in HeLa cells (Homo sapiens, UniProt P14902); test: Detection of IDO inhibitory activity at the cellular level (IFN-γ-induced HeLa cells); type: cell-based; settings: 48 hours; for inhibition at 1 µM: tested compound 1 μM, human IFN-γ 50 ng/ml, read-out: IDO Inhibitory Rate (%) (1 μM); for EC50: human IFN-γ induced, read-out: IDO EC50 (nM) at the Cellular Level (column head: IC50 (nM))
T2 construct: HeLa cells are human cervical cancer cell lines and can up-regulate the expression of endogenous IDO enzymes; endogenous in cells; host or cells: HeLa cells stimulated with human IFN-γ
T2 sequence (P14902 whole entry): as above
Text: In the present disclosure, IFN-γ-induced IDO enzyme expression in HeLa cells were used as a model to detect the IDO enzymatic inhibitory activity of the compound at the cellular level. HeLa cells are human cervical cancer cell lines and can up-regulate the expression of endogenous IDO enzymes under the induction of human IFN-γ. The cell supernatant can be subjected to detection of the enzyme-catalyzed product kynurenine by adding the substrate L-tryptophan to the cell culture solution. […] Recombinant human IFN-γ cytokine purchased from Sangon Biotech, Phenol red-free DMEM for cell culture purchased from Gibco. […] The cells were further cultured for 48 hours and detected. (2) 200 μl of the supernatant from the culture well was pipetted, 40 μl of a pre-formulated 30% (w/v) trichloroacetic acid solution was added, allowed to react at 65° C. for 20 minutes, and then centrifuged at 12,000 rpm for 15 minutes. (3) 100 μl of the supernatant after centrifugation was pipetted and added into a 96-well plate, an equal volume of 2% p-dimethylaminobenzaldehyde in glacial acetic acid was added, and they were mixed well and allowed to stand at room temperature for 10 minutes. (4) A microplate reader (ELX800NB) was used to detect the color signal of each well, and the detection wavelength was 492 nm.

| SMILES | inhibition at 0.2 µM [1] [%] | inhibition at 1 µM [2] [%] | pIC50 [1] | EC50 [2] [nM] |
| --- | --- | --- | --- | --- |
| O=C(COc1nc2ccccc2o1)N1CCC(C(O)CC2c3ccccc3-c3cncn32)CC1 (stereo not shown) [Example 37, 2-(benzo[d]oxazolin-2-yloxy)-1-(4-(1-hydroxy-2-(5H-imidazo[5,1-a]isoindol-5-yl)ethyl)piperidin-1-yl)ethyl-1-one] | 83 | 97 |  |  |
| CN(CC(=O)N1CCC(C(O)CC2c3ccccc3-c3cncn32)CC1)c1ccccc1 (stereo not shown) [Example 59, 1-(4-(1-hydroxy-2-(5H-imidazo[5,1-a]isoindol-5-yl)ethyl)piperidin-1-yl)-2-(methyl(phenyl)amino)ethyl-1-one] | 83 | 92 | 6.80 | 169 |
| O=C(COc1ccc2[nH]c3ccccc3c2c1)N1CCC(C(O)CC2c3ccccc3-c3cncn32)CC1 (stereo not shown) [Example 17, 2-((9H-carbazol-3-yl)oxy)-1-(4-(1-hydroxy-2-(5H-imidazo[5,1-a]isoindol-5-yl)ethyl)piperidin-1-yl)ethyl-1-one] | 85 | 93 |  |  |
| O=C(COc1ccccc1)N1CCC(C(O)CC2c3ccccc3-c3cncn32)CC1 (stereo not shown) [Example 7, 1-(4-(1-hydroxy-2-(5H-imidazo[5,1-a]isoindol-5-yl)ethyl)piperidin-1-yl)-2-phenoxyethyl-1-one] | 85 | 93 | 7.26 | 154 |
| O=C(COc1ncnc2[nH]cnc12)N1CCC(C(O)CC2c3ccccc3-c3cncn32)CC1 (stereo not shown) [Example 33, 2-((7H-purin-6-yl)oxy)-1-(4-(1-hydroxy-2-(5H-imidazo[5,1-a]isoindol-5-yl)ethyl)piperidin-1-yl)ethyl-1-one] | 70 |  |  |  |
| O=C(COc1ccc2[nH]ccc2c1)N1CCC(C(O)CC2c3ccccc3-c3cncn32)CC1 (stereo not shown) [Example 26, 2-((1H-indol-5-yl)oxy)-1-(4-(1-hydroxy-2-(5H-imidazo[5,1-a]isoindol-5-yl)ethyl)piperidin-1-yl)-ethyl-1-one] | 89 | 92 |  |  |
| O=C(COc1ccc2ncccc2c1)N1CCC(C(O)CC2c3ccccc3-c3cncn32)CC1 (stereo not shown) [Example 23, 1-(4-(1-hydroxy-2-(5H-imidazo[5,1-a]isoindol-5-yl)ethyl)piperidin-1-yl)-2-(quinolin-6-yloxy)ethyl-1-one] | 80 | 77 |  |  |
| O=C(COc1ccc2oc3ccccc3c2c1)N1CCC(C(O)CC2c3ccccc3-c3cncn32)CC1 (stereo not shown) [Example 57, 2-(dibenzo[b,d]furan-2-yloxy)-1-(4-(1-hydroxy-2-(5H-imidazo[5,1-a]isoindol-5-yl)ethyl)piperidin-1-yl)ethyl-1-one] | 88 | 91 |  |  |
| O=C(COc1cccc(Cl)c1)N1CCC(C(O)CC2c3ccccc3-c3cncn32)CC1 (stereo not shown) [Example 41, 2-(3-chlorophenoxy)-1-(4-(1-hydroxy-2-(5H-imidazo[5,1-a]isoindol-5-yl)ethyl)piperidin-1-yl)ethyl-1-one] | 92 | 99 |  |  |
| Cc1ccc(N(C)CC(=O)N2CCC(C(O)CC3c4ccccc4-c4cncn43)CC2)cc1C (stereo not shown) [Example 77, 2-((3,4-dimethylphenyl)(methyl)amino)-1-(4-(1-hydroxy-2-(5H-imidazo[5,1-a]isoindol-5-yl)ethyl)piperidin-1-yl)ethyl-1-one] | 82 | 95 |  |  |
| O=C(COc1cccc(C(F)(F)F)c1)N1CCC(C(O)CC2c3ccccc3-c3cncn32)CC1 (stereo not shown) [Example 48, 2-(3-trifluoromethylphenoxy)-1-(4-(1-hydroxy-2-(5H-imidazo[5,1-a]isoindol-5-yl)ethyl)piperidin-1-yl)ethyl-1-one] | 89 | 99 |  |  |
| CCN(CC(=O)N1CCC(C(O)CC2c3ccccc3-c3cncn32)CC1)c1ccccc1 (stereo not shown) [Example 81, 2-(ethyl(phenyl)amino)-1-(4-(1-hydroxy-2-(5H-imidazo[5,1-a]isoindol-5-yl)ethyl)piperidin-1-yl)ethyl-1-one] | 85 | 94 |  |  |
| O=C(COC1CCCCC1)N1CCC(C(O)CC2c3ccccc3-c3cncn32)CC1 (stereo not shown) [Example 50, 2-(cyclohexyloxy)-1-(4-(1-hydroxy-2-(5H-imidazo[5,1-a]isoindol-5-yl)ethyl)piperidin-1-yl)ethyl-1-one] | 66 | 69 |  |  |
| CN(CC(=O)N1CCC(C(O)CC2c3ccccc3-c3cncn32)CC1)c1ccc(F)c(Cl)c1 (stereo not shown) [Example 68, 2-((3-chloro-4-fluorophenyl)(methyl)amino)-1-(4-(1-hydroxy-2-(5H-imidazo[5,1-a]isoindol-5-yl)ethyl)piperidin-1-yl)ethyl-1-one] | 87 | 98 |  |  |
| Cc1ccc(OCC(=O)N2CCC(C(O)CC3c4ccccc4-c4cncn43)CC2)cc1C (stereo not shown) [Example 46, 2-(3,4-dimethylphenoxy)-1-(4-(1-hydroxy-2-(5H-imidazo[5,1-a]isoindol-5-yl)ethyl)piperidin-1-yl)ethyl-1-one] | 83 | 93 |  |  |

Now from value to molecule:

| inhibition at 0.2 µM [1] [%] | inhibition at 1 µM [2] [%] | pIC50 [1] | EC50 [2] [nM] | SMILES |
| --- | --- | --- | --- | --- |
| 68 | 85 |  |  | CN(CC(=O)N1CCC(C(O)CC2c3ccccc3-c3cncn32)CC1)c1ccc(C(F)(F)F)cc1 (stereo not shown) [Example 89, 1-(4-(1-hydroxy-2-(5H-imidazo[5,1-a]isoindol-5-yl)ethyl)piperidin-1-yl)-2-(methyl(4-trifluoromethylphenyl)amino)ethyl-1-one] |
| 65 | 84 | 6.84 | 312 | O=C(CNc1ccccc1)N1CCC(C(O)CC2c3ccccc3-c3cncn32)CC1 (stereo not shown) [Example 85, 1-(4-(1-hydroxy-2-(5H-imidazo[5,1-a]isoindol-5-yl)ethyl)piperidin-1-yl)-2-(phenylamino)ethyl-1-one] |
| 85 | 95 |  |  | COc1cccc(N(C)CC(=O)N2CCC(C(O)CC3c4ccccc4-c4cncn43)CC2)c1 (stereo not shown) [Example 102, 2-((3-methoxyphenyl)(methyl)amino)-1-(4-(1-hydroxy-2-(5H-imidazo[5,1-a]isoindol-5-yl)ethyl)piperidin-1-yl)ethyl-1-one] |
| 81 | 83 |  |  | CN(CC(=O)N1CCC(C(O)CC2c3ccccc3-c3cncn32)CC1)c1ccc(C#N)cc1 (stereo not shown) [Example 98] |
|  | 79 |  |  | CN(CC(=O)N1CCC(C(O)CC2c3ccccc3-c3cncn32)CC1)c1ccc2c(c1)oc1ccccc12 (stereo not shown) [Example 124, 2-(dibenzo[b,d]furan-3-yl(methyl)amino)-1-(4-(1-hydroxy-2(5H-imidazo[5,1-a]isoindol-5-yl)ethyl)piperidin-1-yl)ethyl-1-one] |
|  | 68 |  |  | CN(CC(=O)N1CCC(C(O)CC2c3ccccc3-c3cncn32)CC1)c1ccccn1 (stereo not shown) [Example 109, 1-(4-(1-hydroxy-2-(5H-imidazo[5,1-a]isoindol-5-yl)ethyl)piperidin-1-yl)-2-(methyl(pyridin-2-yl)amino)ethyl-1-one] |
| 84 | 98 |  |  | CN(CC(=O)N1CCC(C(O)CC2c3ccccc3-c3cncn32)CC1)c1cccc(C(F)(F)F)c1 (stereo not shown) [Example 94, 1-(4-(1-hydroxy-2-(5H-imidazo[5,1-a]isoindol-5-yl)ethyl)piperidin-1-yl)-2-(methyl(3-trifluoromethylphenyl)amino)ethyl-1-one] |
| 84 | 91 |  |  | CN(CC(=O)N1CCC(C(O)CC2c3ccccc3-c3cncn32)CC1)c1ccc([N+](=O)[O-])cc1 (stereo not shown) [Example 105, 1-(4-(1-hydroxy-2-(5H-imidazo[5,1-a]isoindol-5-yl)ethyl)piperidin-1-yl)-2-(methyl(4-nitrophenyl)atnino)ethyl-1-one] |
